Results: patent publication US7544710B2 (Les Laboratoires Servier, priority 2002, dated 2009)

System: animals
Assay: In vivo study with a different strontium salt (strontium chloride)

## [Cl-].[Cl-].[Sr+2] [strontium chloride]
  superficial haemorrhagic lesions in the animals treated: very rapidly caused superficial haemorrhagic lesions
